Test systems include HCT-116; SNB-75; SW-620; 786-0; COLO 205; SN12C; HOP-62; NCI-H522; Hs-578T; SK-MEL-28; A498; HT-29; SF-539; NCI-H226; Malme-3M; NCI-H23; BT-549; M14; MDA-N.
Common to all, as to assay: NCI anticancer screen, dose series, 48 h

Structures are written as SMILES.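 Following 48 hours of exposure in 96-well plates, responses at five concentrations were used to interpolate endpoints linearly. The concentration for 50% growth inhibition is given as GI50.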 Active and inactive are the calls of the source. No stated cut-off is given here; in the data, active = GI50 up to about 1.1 µM and inactive = higher.

On to `Cc1ccc(SC2=C(N(C)C)C(=O)c3ccccc3C2=O)cc1`, for which the GI50 in the experiment on HCT-116 is 1.1 µM (active); in the experiment with SNB-75 it was 12.1 µM (inactive); with SW-620, 1.46 µM (inactive); in the experiment with 786-0 it was 3.82 µM (inactive); with COLO 205, 20.8 µM (inactive); in the experiment with SN12C, 4.92 µM (inactive). Besides, the GI50 in the experiment with HOP-62 was 8.2 µM (inactive); with NCI-H522, 1.22 µM (inactive); in the experiment on Hs-578T, 4.85 µM (inactive); in the experiment with SK-MEL-28 it was 10.3 µM (inactive); in the experiment on A498, 15.9 µM (inactive); in the experiment on HT-29 it was 6.27 µM (inactive). Moreover, the GI50 was 2.79 µM (inactive) with SF-539; 9.82 µM (inactive) in the experiment on NCI-H226; 4.83 µM (inactive) in the experiment with Malme-3M; 1.82 µM (inactive) in the experiment on NCI-H23; 6.43 µM (inactive) in the experiment on BT-549; 3.27 µM (inactive) in the experiment on M14.

Consider `c1ccc2c3c([nH]c2c1)C1CCCN1CC3` (centres undefined), for which the GI50 in the experiment with SNB-75, in the experiment on SW-620, with 786-0, in the experiment on COLO 205, with SN12C and in the experiment with HOP-62 was > 10 µM (inactive) each time. The GI50 with MDA-N, with NCI-H522, with Hs-578T, in the experiment on SK-MEL-28, in the experiment on A498 and in the experiment with HT-29 was > 10 µM (inactive) throughout. Besides, the GI50 in the experiment on SF-539, with NCI-H226, in the experiment with Malme-3M, in the experiment on NCI-H23 and in the experiment on M14 was > 10 µM (inactive) in each case.

Consider `CCCCCCNCCCNc1c2cc(OC)ccc2nc2cccc([N+](=O)[O-])c12`, for which the GI50 with HCT-116 is 0.036 µM (active); in the experiment on SNB-75, 0.298 µM (active); in the experiment with SW-620 it was < 0.0233 µM (active); in the experiment on 786-0 it was 0.0834 µM (active); in the experiment on COLO 205, 0.139 µM (active); in the experiment with SN12C, 0.0787 µM (active). Further, the GI50 with HOP-62 is 0.0908 µM (active); with NCI-H522 it was < 0.0195 µM (active); in the experiment with Hs-578T, 0.299 µM (active); in the experiment on SK-MEL-28, 0.208 µM (active); in the experiment with A498 it was 1.62 µM (inactive); with HT-29, 0.0326 µM (active). In addition, the GI50 in the experiment with SF-539 is 0.29 µM (active); with NCI-H226, 0.257 µM (active); in the experiment on Malme-3M, 0.0304 µM (active); with NCI-H23 it was 0.124 µM (active); in the experiment with BT-549, 0.809 µM (active); in the experiment with M14 it was 0.143 µM (active).

Consider `N#Cc1c(-c2ccccc2)c(/N=N/c2ccc(Cl)cc2)c(=O)n2c1[nH]c1ccccc12`, for which the GI50 in the experiment on HCT-116 is 31 µM (inactive); in the experiment with SNB-75, 71 µM (inactive); in the experiment on SW-620, > 100 µM (inactive); in the experiment with 786-0, 23.6 µM (inactive); with COLO 205 it was > 100 µM (inactive); with SN12C, > 100 µM (inactive). The GI50 in the experiment on HOP-62 is 27.2 µM (inactive); in the experiment on MDA-N, > 100 µM (inactive); in the experiment on NCI-H522, 79.4 µM (inactive); in the experiment on SK-MEL-28, > 100 µM (inactive); in the experiment with A498 it was > 100 µM (inactive); in the experiment with SF-539 it was > 100 µM (inactive). For the same compound, the GI50 with NCI-H226 was 65.9 µM (inactive); with Malme-3M it was > 100 µM (inactive); with NCI-H23, > 100 µM (inactive); in the experiment with BT-549, > 100 µM (inactive); with M14, > 100 µM (inactive).

With `O=c1c(Cl)c(Cl)c(=O)c2sc3cc(Cl)ccc3[nH]c1=2`, the GI50 was 33 µM (inactive) in the experiment on HCT-116; 47.4 µM (inactive) with SNB-75; 20.3 µM (inactive) in the experiment on SW-620; > 100 µM (inactive) in the experiment with 786-0; 90.4 µM (inactive) in the experiment on COLO 205; > 100 µM (inactive) in the experiment with HOP-62. Also, the GI50 in the experiment on NCI-H522 was 16.1 µM (inactive); in the experiment on Hs-578T it was 39 µM (inactive); in the experiment with SK-MEL-28, > 100 µM (inactive); in the experiment on A498 it was > 100 µM (inactive); with HT-29, > 100 µM (inactive); in the experiment with SF-539 it was 43 µM (inactive). Further, the GI50 was 27.3 µM (inactive) in the experiment with NCI-H226; 40.1 µM (inactive) in the experiment with Malme-3M; 23.3 µM (inactive) in the experiment with NCI-H23; 2.81 µM (inactive) in the experiment on BT-549; 40.5 µM (inactive) in the experiment on M14.

Take `c1ccc(/N=C(/Nc2ccccc2)N2CCCC2)cc1`: the GI50 with HCT-116, with SNB-75, with SW-620, in the experiment on 786-0, with COLO 205 and in the experiment with SN12C was > 100 µM (inactive) each time. The GI50 with HOP-62, with MDA-N, in the experiment on NCI-H522, in the experiment with Hs-578T, in the experiment with SK-MEL-28 and in the experiment on HT-29 was > 100 µM (inactive) throughout. Further, the GI50 in the experiment on NCI-H226, with Malme-3M, in the experiment with NCI-H23, in the experiment on BT-549 and in the experiment on M14 was > 100 µM (inactive) each time.

`COc1ccc(CN(Cc2ccc(OC)cc2)C(=O)CC2(O)CCc3ccccc3C2)cc1` (centres undefined): the GI50 was 38 µM (inactive) with HCT-116; 30.1 µM (inactive) in the experiment on SNB-75; > 100 µM (inactive) with SW-620; > 100 µM (inactive) in the experiment with 786-0; 21.8 µM (inactive) with COLO 205; > 100 µM (inactive) in the experiment with SN12C. In addition, the GI50 is > 100 µM (inactive) in the experiment with HOP-62; 24 µM (inactive) in the experiment with NCI-H522; 40.3 µM (inactive) with Hs-578T; > 100 µM (inactive) in the experiment on SK-MEL-28; > 100 µM (inactive) in the experiment with A498; 37.4 µM (inactive) with HT-29. Also, the GI50 is > 100 µM (inactive) in the experiment on SF-539; 15.1 µM (inactive) in the experiment with NCI-H226; 28.2 µM (inactive) in the experiment with Malme-3M; > 100 µM (inactive) in the experiment with NCI-H23; > 100 µM (inactive) with BT-549; 66.1 µM (inactive) with M14.

Regarding `CC(=O)n1[nH]c(=O)n(-c2ccc(Cl)cc2)c1=O`, the GI50 in the experiment with HCT-116, with SW-620, in the experiment on 786-0, in the experiment with COLO 205, in the experiment with SN12C and with HOP-62 was > 100 µM (inactive) each time. Besides, the GI50 is > 100 µM (inactive) in the experiment on MDA-N; > 100 µM (inactive) in the experiment with NCI-H522; > 100 µM (inactive) in the experiment on SK-MEL-28; > 100 µM (inactive) in the experiment on HT-29; > 100 µM (inactive) with NCI-H226; 45.9 µM (inactive) in the experiment with Malme-3M. Besides, the GI50 in the experiment with NCI-H23, in the experiment on BT-549 and in the experiment with M14 was > 100 µM (inactive) in each case.

With `O=C(NC(O)(C(F)(F)F)C(F)(F)F)c1ccccc1`, the GI50 with HCT-116, in the experiment with SNB-75, in the experiment on SW-620, in the experiment on 786-0, in the experiment on COLO 205 and with SN12C was > 100 µM (inactive) throughout. The GI50 with HOP-62, in the experiment on MDA-N, in the experiment with NCI-H522, in the experiment on Hs-578T, in the experiment with SK-MEL-28 and in the experiment with A498 was > 100 µM (inactive) throughout. Besides, the GI50 in the experiment on HT-29 was > 100 µM (inactive); in the experiment on SF-539, > 100 µM (inactive); in the experiment with NCI-H226, 51.6 µM (inactive); in the experiment on Malme-3M, > 100 µM (inactive); in the experiment with NCI-H23, > 100 µM (inactive); in the experiment with M14 it was > 100 µM (inactive).

Regarding `CCCCC(=O)N/S(=N/C(=O)c1ccccc1)C(Cl)(Cl)Cl` (centres undefined), the GI50 with HCT-116, in the experiment with SNB-75, in the experiment with SW-620, with 786-0, in the experiment with COLO 205 and with SN12C was > 100 µM (inactive) throughout. Besides, the GI50 in the experiment with HOP-62, in the experiment on MDA-N, in the experiment on Hs-578T, in the experiment with SK-MEL-28, in the experiment with HT-29 and in the experiment with SF-539 was > 100 µM (inactive) throughout. The GI50 in the experiment on NCI-H226, in the experiment with Malme-3M, in the experiment on NCI-H23, with BT-549 and in the experiment on M14 was > 100 µM (inactive) throughout.

Regarding `CC(=O)O[C@H]1CC2C(C3CCC(C(C)CCC(=O)O)[C@]31C)[C@H](OC(C)=O)C[C@@H]1CC3(CC[C@]21C)OOC1(CC[C@]2(C)C4C[C@H](OC(C)=O)[C@]5(C)C(C(C)CCC(=O)O)CCC5C4[C@H](OC(C)=O)C[C@@H]2C1)OO3` (some centres undefined), the GI50 was 1.75 µM (inactive) in the experiment on HCT-116; 1.3 µM (inactive) in the experiment with SNB-75; 3.46 µM (inactive) in the experiment on SW-620; 2.76 µM (inactive) in the experiment on 786-0; 1.91 µM (inactive) in the experiment with COLO 205; 2.42 µM (inactive) with SN12C. Besides, the GI50 in the experiment on HOP-62 is 1.83 µM (inactive); in the experiment with MDA-N, 2.31 µM (inactive); in the experiment with NCI-H522 it was 1.42 µM (inactive); with Hs-578T it was 1.5 µM (inactive); in the experiment on SK-MEL-28 it was 4.09 µM (inactive); in the experiment with HT-29, 2.57 µM (inactive). For the same compound, the GI50 in the experiment with NCI-H226 is 2.04 µM (inactive); in the experiment on Malme-3M, 1.52 µM (inactive); with NCI-H23 it was 1.64 µM (inactive); in the experiment on BT-549, 1.56 µM (inactive); in the experiment on M14 it was 2.53 µM (inactive).

Values taken from ChEMBL document CHEMBL1201862, “PubChem BioAssay data set” (2004).
